Measurements reported in patent US4257941A, “Polycyclic nitrogen-containing compounds” (BASF Aktiengesellschaft, priority 1976, dated 1981).
Structures can show the parent of a compound that is named as a salt.

Test system: lawns
Experiment: Long-term action on lawns (Example 14)
Assay type: in vivo
Conditions: for First cutting, green weight relative / First cutting, growth height relative / Second cutting, green weight relative / Second cutting, growth height relative / Third cutting, green weight relative: control 100

## Clc1ccc(N2N=NC3C4CC(C5NNC45)C32)cc1 (centres unmarked) [drawing 381]
0.5 kg/ha
  First cutting, green weight: 28.8 g
  First cutting, growth height: 16.5 cm
  Second cutting, green weight: 27.2 g
  Second cutting, growth height: 12.5 cm
  Third cutting, green weight: 17.2 g
  First cutting, green weight relative: 81.6
  First cutting, growth height relative: 91.7
  Second cutting, green weight relative: 101.9
  Second cutting, growth height relative: 85.0
  Third cutting, green weight relative: 113.2
1.0 kg/ha
  First cutting, green weight: 21.3 g
  First cutting, growth height: 13.5 cm
  Second cutting, green weight: 20.5 g
  Second cutting, growth height: 9.0 cm
  Third cutting, green weight: 15.1 g
  First cutting, green weight relative: 60.3
  First cutting, growth height relative: 75.0
  Second cutting, green weight relative: 76.8
  Second cutting, growth height relative: 61.2
  Third cutting, green weight relative: 99.3
2.0 kg/ha
  First cutting, green weight: 17.2 g
  First cutting, growth height: 11.5 cm
  Second cutting, green weight: 16.2 g
  Second cutting, growth height: 7.5 cm
  Third cutting, green weight: 12.5 g
  First cutting, green weight relative: 48.7
  First cutting, growth height relative: 63.9
  Second cutting, green weight relative: 60.7
  Second cutting, growth height relative: 51.0
  Third cutting, green weight relative: 82.2
4.0 kg/ha
  First cutting, green weight: 13.9 g
  First cutting, growth height: 9.0 cm
  Second cutting, green weight: 10.2 g
  Second cutting, growth height: 5.0 cm
  Third cutting, green weight: 9.8 g
  First cutting, green weight relative: 39.4
  First cutting, growth height relative: 50.0
  Second cutting, green weight relative: 38.2
  Second cutting, growth height relative: 34.0
  Third cutting, green weight relative: 64.5

## CC(=O)Nc1ccc(C)c(NS(=O)(=O)C(F)(F)F)c1 [S, diethanolamine salt of 3-trifluoromethylsulfonamido-p-acetotoluidide, reference compound]
0.5 kg/ha
  First cutting, green weight: 26.7 g
  First cutting, growth height: 14.5 cm
  Second cutting, green weight: 27.3 g
  Second cutting, growth height: 14.0 cm
  Third cutting, green weight: 15.6 g
  First cutting, green weight relative: 75.6
  First cutting, growth height relative: 80.6
  Second cutting, green weight relative: 102.2
  Second cutting, growth height relative: 95.2
  Third cutting, green weight relative: 102.6
1.0 kg/ha
  First cutting, green weight: 23.0 g
  First cutting, growth height: 13.0 cm
  Second cutting, green weight: 27.6 g
  Second cutting, growth height: 12.5 cm
  Third cutting, green weight: 15.0 g
  First cutting, green weight relative: 65.2
  First cutting, growth height relative: 72.2
  Second cutting, green weight relative: 103.4
  Second cutting, growth height relative: 85.0
  Third cutting, green weight relative: 98.6
2.0 kg/ha
  First cutting, green weight: 12.6 g
  First cutting, growth height: 10.5 cm
  Second cutting, green weight: 20.1 g
  Second cutting, growth height: 9.5 cm
  Third cutting, green weight: 13.7 g
  First cutting, green weight relative: 35.7
  First cutting, growth height relative: 58.3
  Second cutting, green weight relative: 75.3
  Second cutting, growth height relative: 64.6
  Third cutting, green weight relative: 90.1
4.0 kg/ha
  First cutting, green weight: 9.4 g
  First cutting, growth height: 9.0 cm
  Second cutting, green weight: 9.6 g
  Second cutting, growth height: 4.5 cm
  Third cutting, green weight: 10.4 g
  First cutting, green weight relative: 26.6
  First cutting, growth height relative: 50.0
  Second cutting, green weight relative: 36.0
  Second cutting, growth height relative: 30.6
  Third cutting, green weight relative: 68.4

## c1cc2sncc2cc1N1N=NC2C3CC(C4N=NC34)C21 (centres unmarked) [drawing 382]
0.5 kg/ha
  First cutting, green weight: 31.8 g
  First cutting, growth height: 18.5 cm
  Second cutting, green weight: 28.8 g
  Second cutting, growth height: 14.0 cm
  Third cutting, green weight: 15.5 g
  First cutting, green weight relative: 90.1
  First cutting, growth height relative: 102.8
  Second cutting, green weight relative: 107.9
  Second cutting, growth height relative: 95.2
  Third cutting, green weight relative: 102.0
1.0 kg/ha
  First cutting, green weight: 27.1 g
  First cutting, growth height: 16.5 cm
  Second cutting, green weight: 25.8 g
  Second cutting, growth height: 13.0 cm
  Third cutting, green weight: 15.3 g
  First cutting, green weight relative: 76.8
  First cutting, growth height relative: 91.7
  Second cutting, green weight relative: 96.6
  Second cutting, growth height relative: 88.4
  Third cutting, green weight relative: 100.7
2.0 kg/ha
  First cutting, green weight: 20.3 g
  First cutting, growth height: 14.5 cm
  Second cutting, green weight: 19.1 g
  Second cutting, growth height: 9.0 cm
  Third cutting, green weight: 12.8 g
  First cutting, green weight relative: 57.5
  First cutting, growth height relative: 80.6
  Second cutting, green weight relative: 71.5
  Second cutting, growth height relative: 61.2
  Third cutting, green weight relative: 84.2
4.0 kg/ha
  First cutting, green weight: 19.5 g
  First cutting, growth height: 12.5 cm
  Second cutting, green weight: 16.8 g
  Second cutting, growth height: 7.0 cm
  Third cutting, green weight: 12.8 g
  First cutting, green weight relative: 55.2
  First cutting, growth height relative: 69.5
  Second cutting, green weight relative: 62.9
  Second cutting, growth height relative: 47.6
  Third cutting, green weight relative: 84.2

## Brc1ccc(N2N=NC3C4CC(C5N=NC45)C32)cc1 (centres unmarked) [drawing 380]
0.5 kg/ha
  First cutting, green weight: 25.5 g
  First cutting, growth height: 14.5 cm
  Second cutting, green weight: 27.8 g
  Second cutting, growth height: 14.5 cm
  Third cutting, green weight: 16.5 g
  First cutting, green weight relative: 72.2
  First cutting, growth height relative: 80.6
  Second cutting, green weight relative: 104.1
  Second cutting, growth height relative: 98.6
  Third cutting, green weight relative: 108.6
1.0 kg/ha
  First cutting, green weight: 24.4 g
  First cutting, growth height: 12.5 cm
  Second cutting, green weight: 25.1 g
  Second cutting, growth height: 11.5 cm
  Third cutting, green weight: 16.5 g
  First cutting, green weight relative: 69.1
  First cutting, growth height relative: 69.5
  Second cutting, green weight relative: 94.0
  Second cutting, growth height relative: 78.2
  Third cutting, green weight relative: 108.6
2.0 kg/ha
  First cutting, green weight: 22.0 g
  First cutting, growth height: 11.0 cm
  Second cutting, green weight: 18.7 g
  Second cutting, growth height: 8.0 cm
  Third cutting, green weight: 14.0 g
  First cutting, green weight relative: 62.3
  First cutting, growth height relative: 61.1
  Second cutting, green weight relative: 70.0
  Second cutting, growth height relative: 54.4
  Third cutting, green weight relative: 92.1
4.0 kg/ha
  First cutting, green weight: 16.5 g
  First cutting, growth height: 10.5 cm
  Second cutting, green weight: 13.2 g
  Second cutting, growth height: 7.0 cm
  Third cutting, green weight: 10.3 g
  First cutting, green weight relative: 46.7
  First cutting, growth height relative: 58.3
  Second cutting, green weight relative: 49.4
  Second cutting, growth height relative: 47.6
  Third cutting, green weight relative: 67.8

## Cc1ccccc1N1N=NC2C3CC(C4N=NC34)C21 (centres unmarked)
0.5 kg/ha
  First cutting, green weight: 26.8 g
  First cutting, growth height: 14.0 cm
  Second cutting, green weight: 23.5 g
  Second cutting, growth height: 13.0 cm
  Third cutting, green weight: 16.5 g
  First cutting, green weight relative: 75.9
  First cutting, growth height relative: 77.8
  Second cutting, green weight relative: 88.0
  Second cutting, growth height relative: 88.4
  Third cutting, green weight relative: 108.6
1.0 kg/ha
  First cutting, green weight: 25.5 g
  First cutting, growth height: 14.0 cm
  Second cutting, green weight: 22.0 g
  Second cutting, growth height: 12.5 cm
  Third cutting, green weight: 16.3 g
  First cutting, green weight relative: 72.2
  First cutting, growth height relative: 77.8
  Second cutting, green weight relative: 82.4
  Second cutting, growth height relative: 85.0
  Third cutting, green weight relative: 107.2
2.0 kg/ha
  First cutting, green weight: 20.0 g
  First cutting, growth height: 12.5 cm
  Second cutting, green weight: 21.4 g
  Second cutting, growth height: 22.0 cm
  Third cutting, green weight: 15.7 g
  First cutting, green weight relative: 56.7
  First cutting, growth height relative: 69.5
  Second cutting, green weight relative: 80.1
  Second cutting, growth height relative: 74.8
  Third cutting, green weight relative: 103.3
4.0 kg/ha
  First cutting, green weight: 13.2 g
  First cutting, growth height: 9.5 cm
  Second cutting, green weight: 15.3 g
  Second cutting, growth height: 7.5 cm
  Third cutting, green weight: 13.9 g
  First cutting, green weight relative: 37.4
  First cutting, growth height relative: 52.8
  Second cutting, green weight relative: 57.3
  Second cutting, growth height relative: 51.0
  Third cutting, green weight relative: 91.4
